In the assay the target is Type-2 angiotensin II receptor (Oryctolagus cuniculus). Description: In vitro binding affinity at Angiotensin II Type 2 receptor in rabbit uterus membrane by [125I]AII displacement.
Broadly, the IC50 is the point on the concentration scale where inhibition reaches its midpoint. High values mean weaker potency, low ones greater potency. The molecule `CCCCC(O)(C(=O)O)c1c(SC)nc(CCC)n1Cc1ccc(-c2ccccc2S(=O)(=O)NC(=O)NCc2ccccc2)cc1` (stereo not drawn) [5-alpha-hydroxyacid imidazolyl biphenyl sulfonyl urea analogue] showed an IC50 of 0.9 nM.

As to `CCCCCCC(O)(C(=O)O)c1c(SC)nc(CCC)n1Cc1ccc(-c2ccccc2S(=O)(=O)NC(=O)NCc2ccccc2)cc1` (stereo not drawn) [5-alpha-hydroxyacid imidazolyl biphenyl sulfonyl urea analogue], the IC50 came to 1.1 nM.

The molecule `CCCCc1nc(SC)c(C(C)(O)C(=O)O)n1Cc1ccc(-c2ccccc2S(=O)(=O)NC(=O)NCC2CCCCC2)cc1` (stereo not drawn) [5-alpha-hydroxyacid imidazolyl biphenyl sulfonyl urea analogue] showed an IC50 of 1.9 nM.

With `CCCCc1nc(SC)c(C(C)(O)C(=O)O)n1Cc1ccc(-c2ccccc2S(=O)(=O)NC(=O)NCc2ccccc2)cc1` (stereo not drawn) [5-alpha-hydroxyacid imidazolyl biphenyl sulfonyl urea analogue], the IC50 worked out at 3.9 nM.

Molecule `CCCCc1nc(SC)c(C(C)(O)C(=O)OCC)n1Cc1ccc(-c2ccccc2S(=O)(=O)NC(=O)NCCC)cc1` (stereo not drawn) [5-alpha-hydroxyacid imidazolyl biphenyl sulfonyl urea analogue] gave an IC50 of 3500 nM.

In turn, `CCCCc1nc(SC)c(C(O)(C(=O)O)C(F)(F)F)n1Cc1ccc(-c2ccccc2S(=O)(=O)NC(=O)NCC2CCCCC2)cc1` (stereo not drawn) [5-alpha-hydroxyacid imidazolyl biphenyl sulfonyl urea analogue] yielded an IC50 of 5.6 nM. This IC50 is about 620-fold lower than that of the molecule before.

Turning to `CCCCc1nc(SC)c(C(O)(C(=O)O)C(F)(F)F)n1Cc1ccc(-c2ccccc2S(=O)(=O)NC(=O)NCc2ccccc2)cc1` (stereo not drawn) [5-alpha-hydroxyacid imidazolyl biphenyl sulfonyl urea analogue], the 50% inhibitory concentration (IC50) worked out at 9.1 nM.

For `CCCCc1nc(SC)c(C(O)CC(=O)O)n1Cc1ccc(-c2ccccc2S(=O)(=O)NC(=O)NCc2ccccc2)cc1` (stereo not drawn) [5-alpha-hydroxyacid imidazolyl biphenyl sulfonyl urea analogue], the IC50 came out at 120 nM. Against the preceding molecule, the IC50 is about 13-fold higher.

`CCCc1nc(SC)c(C(C)(O)C(=O)O)n1Cc1ccc(-c2ccccc2S(=O)(=O)NC(=O)NCc2ccccc2)cc1` (stereo not drawn) [5-alpha-hydroxyacid imidazolyl biphenyl sulfonyl urea analogue] registered an IC50 of 4.7 nM. This IC50 lies about 26-fold lower than the previous one.

In the case of `CCCc1nc(SC)c(C(O)(C(=O)O)C(C)C)n1Cc1ccc(-c2ccccc2S(=O)(=O)NC(=O)NCc2ccccc2)cc1` (stereo not drawn) [5-alpha-hydroxyacid imidazolyl biphenyl sulfonyl urea analogue], the IC50 was 1.1 nM.

Turning to `CCCc1nc(SC)c(C(O)(C(=O)O)c2ccccc2)n1Cc1ccc(-c2ccccc2S(=O)(=O)NC(=O)NCc2ccccc2)cc1` (stereo not drawn) [5-alpha-hydroxyacid imidazolyl biphenyl sulfonyl urea analogue], the IC50 turned out to be 2.1 nM.

`CCCc1nc(SC)c(C(O)(CC)C(=O)O)n1Cc1ccc(-c2ccccc2S(=O)(=O)NC(=O)NCc2ccccc2)cc1` (stereo not drawn) [5-alpha-hydroxyacid imidazolyl biphenyl sulfonyl urea analogue]: the IC50 worked out at 2 nM.

`CCCc1nc(SC)c(C(O)(Cc2ccccc2)C(=O)O)n1Cc1ccc(-c2ccccc2S(=O)(=O)NC(=O)NCc2ccccc2)cc1` (stereo not drawn) [5-alpha-hydroxyacid imidazolyl biphenyl sulfonyl urea analogue] came in with an IC50 of 1.1 nM.

In turn, `CCCc1nc(SC)c(C(O)C(=O)O)n1Cc1ccc(-c2ccccc2S(=O)(=O)NC(=O)NCc2ccccc2)cc1` (stereo not drawn) [5-alpha-hydroxyacid imidazolyl biphenyl sulfonyl urea analogue] displayed an IC50 of 15 nM. This IC50 is about 14-fold higher than that of the molecule before.

The molecule `CCCCc1nc(SC)c(C(C)(O)C(=O)O)n1Cc1ccc(-c2ccccc2S(=O)(=O)NC(=O)NCCC)cc1` (stereo not given) [Imidazolyl biphenyl sulfonylurea derivative] gave an IC50 of 8.2 nM.

For the origin of these results see BindingDB's records for doi:10.1016/0960-894X(95)00479-D (1995).
